Measurements as given in patent publication US6756380B1, “5-phenyl-pyrimidine derivatives” (Hoffmann-La Roche Inc., priority 1999, dated 2004).
Structures can show the parent of a compound that is named as a salt.

molecular target: T1, human NK1 receptor (Homo sapiens, UniProt P25103); assay: NK1 receptor binding assay, displacement of [3H]substance P; settings: [3H]substance P (0.6 nM) displacement; CHO cells infected with the human NK1 receptor (Semliki virus expression system); 60 min at room temperature; read-out: affinity to the NK-1 receptor, given as pKi (converted)
T1 construct: expressed in transfected cells; host or cells: CHO cells infected with Semliki virus expression system; membrane suspension
Experimental: The affinity of test compounds for the NK, receptor was evaluated at human NK, receptors in CHO cells infected with the human NK1 receptor (using the Semliki virus expression system) and radiolabelled with [^3H]substance P (final concentration 0.6 nM). Binding assays were performed in HEPES buffer (50 mM, pH 7.4) containing BSA (0.04 %) leupeptin (8 μg/ml), MnCl2 (3mM) and phosphoramidon (2 μM). Binding assays consisted of 250 μl of membrane suspension (1.25×10^5 cells/assay tube), […] of buffer of displacing agent and 125 μl of [^3H]substance P. Displacement curves were determined with at least seven concentrations of the compound. The assay tubes were incubated for 60 min at room temperature after which time the tube contents were rapidly filtered under vacuum through GF/C filters presoaked for 60 min with PEI (0.3%) with 2×2 ml washed of HEPES buffer (50 mM, pH 7.4). The radioactivity retained on the filters was measured by scintillation counting. All assays were performed in triplicate in at least 2 separate experiments.

T1 sequence (P25103 whole entry): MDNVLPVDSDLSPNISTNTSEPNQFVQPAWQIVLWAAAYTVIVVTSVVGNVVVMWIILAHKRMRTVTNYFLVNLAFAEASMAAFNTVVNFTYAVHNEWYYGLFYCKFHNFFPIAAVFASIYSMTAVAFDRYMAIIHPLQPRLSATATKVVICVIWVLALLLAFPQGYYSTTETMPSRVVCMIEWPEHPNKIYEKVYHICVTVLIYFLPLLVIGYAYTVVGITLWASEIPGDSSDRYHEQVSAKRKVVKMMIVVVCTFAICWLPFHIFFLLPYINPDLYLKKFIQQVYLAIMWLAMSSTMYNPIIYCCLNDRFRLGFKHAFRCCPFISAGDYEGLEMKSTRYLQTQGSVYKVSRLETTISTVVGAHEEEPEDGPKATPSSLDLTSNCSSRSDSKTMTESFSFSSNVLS

Ki | Compound
1.45 nM | Cc1cc(F)ccc1-c1cnc(NCCN(C)C)nc1C(=O)N(C)Cc1cc(C(F)(F)F)cc(C(F)(F)F)c1 [Example 54, 2-(2-Dimethylamino-ethylamino)-5-(4-fluoro-2-methyl-phenyl)-pyrimidine-4-carboxylic acid (3,5-bis-trifluoromethyl-benzyl)-methyl-amide]
3.72 nM | CN1CCN(c2ncc(-c3cccc4ccccc34)c(C(=O)N(C)Cc3cc(C(F)(F)F)cc(C(F)(F)F)c3)n2)CC1 [Example 25, 2-(4-Methyl-piperazin-1-yl)-5-naphthalen-1-yl-pyrimidine-4-carboxylic acid (3,5-bis-trifluoromethyl-benzyl)-methyl-amide]
2.19 nM | Cc1ccccc1-c1cnc(OCCN(C)C)nc1C(=O)N(C)Cc1cc(C(F)(F)F)cc(C(F)(F)F)c1 [Example 21, 2-(2-Dimethylamino-ethoxy)-5-o-tolyl-pyrimidine-4-carboxylic acid (3,5-bis-trifluoromethyl-benzyl)-methyl-amide]
0.661 nM | Cc1ccccc1-c1cnc(OCCN(C)C)nc1N(C)C(=O)C(C)(C)c1cc(C(F)(F)F)cc(C(F)(F)F)c1 [Example 79, 2-(3,5-Bis-trifluoromethyl-phenyl)-N-[2-(2-dimethylamino-ethoxy)-5-o-tolyl-pyrimidin-4-yl]-N-methyl-isobutyramide]
6.17 nM | CN1CCN(c2ncc(-c3ccccc3Cl)c(C(=O)N(C)Cc3cc(C(F)(F)F)cc(C(F)(F)F)c3)n2)CC1 [Example 13, 5-(2-Chloro-phenyl)-2-(4-methyl-piperazin-1-yl)-pyrimidine-4-carboxylic acid (3,5-bis-trifluoromethyl-benzyl)-methyl-amide]

tested on: not given; assay: not given; settings: not given

melting point | Compound
147 to 149 °C | Cc1ccccc1-c1cnc(OCCN(C)C)nc1C(=O)N(C)Cc1cc(C(F)(F)F)cc(C(F)(F)F)c1 (as salt: hydrochloride) [Example 21, 2-(2-Dimethylamino-ethoxy)-5-o-tolyl-pyrimidine-4-carboxylic acid (3,5-bis-trifluoromethyl-benzyl)-methyl-amide]
